These results are taken from US20050085645A1, “O-(3-chloropropenyl) hydroxylamine free base” (priority 2003, published 2005).

Data set [1] is described as follows: Storage stability of CPHA free base and CPHA-HCl solutions (decomposition / GC purity drop). It counts as physicochemical. Here is the method:
Neither preparation nor applications of solvent-free CPHA free base or aqueous CPHA solution has been reported in the prior art. […] For example, a commercial 40% CPHA-HCl solution decomposes by 52% after 23 days at 35° C., whereas, a 85% CPHA aqueous solution has only 1.1% purity drop after 78 days at 40° C.
The GC method set up for CPHA purity, impurity profile, and hydroxylamine content determination is described as follows. • Instrument: HP 6890 series GC system. • Column: HP-1 capillary column, 10 m×0.53 mm×[…]. • Detector: FID, 250° C. • Inlet: 200° C. • Oven Temperature program: • Initial temperature: 40° C. • Initial time: 2 minutes. • Ramps: 10° C./min, 65° C., 0 minutes • 20° C./min, 250° C., 3 minutes.
Weigh about 2.00 g of sample in a vial containing 2.20 g of cyclohexanone; Add 50% sodium hydroxide if necessary to bring pH to above 9. Stir the mixture in the capped vial at 50° C. for 2 hours. After cooling, add 8.0 g of dichloromethane and shake for one minute. Settle the mixture for 5 minutes. Take the organic phase for gas chromatographic (GC) analysis. CPHA purity and impurity profile are directly based on GC area. Hydroxylamine content is calculated based on the integration area of cyclohexanone oxime (cyclohexanoxime) peak and O-(chloro-2-propenyl)cyclohexanoxime peak.

Data set [2] is described as follows: Solubility / miscibility in water. Format: physicochemical.
Data set [3] has as its system plants. Nature of the data set: Herbicidal potency of clethodim enantiomer versus racemate. Format: in vivo. The following applies: used in a herbicidal composition; no test data given.
Data set [4] can be described thus: Solubility in organic solvents. Format: physicochemical. The following applies: ethers, alcohol, toluene, chlorinated alkanes. The source says:
For example, to make a O-(3-chloro-2-propenyl)hydroxylamine solution in dichloromethane, CPHA is simply mixed with dichloromethane. No exotherm was observed.

Structures are written as SMILES.

In data set [1] (commercial 40% CPHA-HCl solution, after 23 days at 35° C.), `Cl.NOCC=CCl` [CPHA-HCl, O-(3-chloro-2-propenyl)hydroxylamine hydrochloride, reference compound] returned a decomposition of solution of 52%. Moreover, the maximum solubility entry in data set [2] (commercially available CPHA-HCl solution in water) was “about 45%”.
As to `CCSC(C)CC1CC(=O)C(/C(CC)=N/OC/C=C/Cl)=C(O)C1` (single isomer, unassigned; (-)) [(−) clethodim], the “potency compared to the racemic form or (+) clethodim” value in data set [3] is given as “increased potency”.
As to `NOCC=CCl` [CPHA, O-(3-Chloro-2-propenyl)hydroxylamine], the “solubility in organic solvents” value in data set [4] is recorded as “soluble in many organic solvents”. For the same molecule, in data set [1] (85% CPHA aqueous solution, after 78 days at 40° C.), the purity drop was 1.1%. Further, the miscibility with water entry in data set [2] (room temperature) is “miscible with water”.
